Source: patent publication US11596647B2, “Administration of synergistic amounts of modified citrus pectin and honokiol to treat inflammation and anti-oxidant needs” (ECONUGENICS INC, priority 2016, dated 2023)

Test: Antioxidant activity, ABTS microplate assay (Trolox standard)
Format: biochemical
Details: FIG. 3; result in words
Excerpt: Since antioxidants neutralize the ROS, antioxidant activity of the nutraceutical would be of importance for product development. The principle underlying the antioxidant assay is formation of a ferryl myoglobin radical from metmyoglobin and hydrogen peroxide, which oxidizes ABTS (2,2′-azino-bis(3-ethylbenzthiazoline-6-sulfonic acid) to produce radical cation, ABTS+, a soluble chromogen that is green in color and can be determined spectrophotometrically at 405 nm. Antioxidants suppress the production of the radical cation in a concentration dependent manner and the color intensity decreases proportionally. Trolox, a water soluble vitamin E analog, is used as a control antioxidant for analyzing the antioxidant activity of other nutraceuticals/compounds. Microplate assay was used for the analysis of antioxidant activity with different products according to the procedure described in the Antioxidant assay kit (Sigma-Aldrich, St. Louis, Mo.). The relative antioxidant concentration (mM equivalent of Trolox standard) was calculated from the absorbance readings.

## C=CCc1ccc(O)c(-c2ccc(O)c(CC=C)c2)c1 [H, honokiol]
  antioxidant activity (relative ranking): least anti-oxidant activity
